Source: patent publication US8309788B2, “Protease inhibitors in absorbent articles” (The Procter and Gamble Company, priority 1999, dated 2012)
Where a SMILES comes first, the peptide text is derived from it. [ ]: non-standard residue; d: D form. The star is where a group is joined. Sta = CC(C)C[C@H](N)[C@@H](O)CC(=O)O; Isovaleryl = CC(C)CC(=O)*

Assays:
purified chymotrypsin = assay: Purified Protease Method: purified chymotrypsin; type: biochemical; conditions: pH 7.6, 25° C., read-out: IC50 Values, Purified Proteases, Chymotrypsin
Experimental: Standard in vitro assays for enzyme activity and inhibition of enzyme activity are well known. The reagents used to conduct these tests are generally commercially available. In general, a simple system comprises an enzyme-specific substrate which, when hydrolyzed by the enzyme, produces a colored product. The activity of the enzyme is measured spectrophotometrically as the degree of development of the colored product (i.e. the rate of color change) over a predetermined time period.
For the Purified Protease assay and the Fecal Protease assays described below, the IC50 for each inhibitor tested is calculated according to the following equation: IC50=[I]/[(v/vi)−1] where: [I] is the inhibitor concentration tested, v is the rate of substrate cleavage in the absence of inhibitor and vi is the rate of substrate cleavage in the presence of inhibitor.
The following Purified Protease and Fecal Protease Methods are utilized to determine the inhibitory activity of putative protease inhibitors against a) purified proteases known to exist in feces; and b) the protease activity of feces itself; respectively. […] In the Methods, v and vi are measured as the change in absorbance (optical density, OD) at a given wavelength/time (e.g., minutes).
To test the efficacy of protease inhibitors against purified chymotrypsin, 0.05 mL of a putative inhibitor and 0.125 mL of 16 nM chymotrypsin (e.g., Sigma, St. Louis, Mo., catalogue no. C8946) in chymotrypsin buffer (50 mM TRIS, 10 mM CaCl2, pH 7.6) are added to a microcuvette. […] To this mixture, 0.025 mL of substrate (0.6 mM N-Succ-Ala-Ala-Pro-Phe-p-nitroanilide, e.g., Sigma cat. no. S7388) in chymotrypsin buffer is added to the cuvette, mixed, and the absorbance at 405 nm measured over 10 minutes at 25° C. The rate of substrate cleavage in the presence of inhibitor (vi) is the slope of a plot relating the absorbance at 405 nm versus time. […] The rate of substrate cleavage in the absence of inhibitor (v) is the slope of a plot relating the absorbance at 405 nm versus time. […]

[1] = test system: IL-1α production by cultured keratinocytes in the presence of feces; assay: In Vitro Skin Test for Inhibition of IL-1α Production; type: cell-based, human
Source text: In an in vitro method to determine the efficacy of protease inhibitors in preventing the proinflammatory response of the skin to feces and fecal enzymes, human keratinocytes are obtained from epidermal tissue and cultured in serum free medium in plastic culture vessels containing a nylon mesh surface for a period of time until they are confluent. The mesh surface is then raised to the liquid air interface in order to promote differentiation and formation of multilayered organized layers analogous to those found in vivo, including a well defined stratum corneum barrier layer. Any cell culture system that promotes the growth and differentiation of keratinocytes, as described, may be employed. A commercially available cell culture system suitable for use in the invention is Epiderm (MatTek Corporation, Ashland, Mass.). Infant feces are collected in a manner to keep them free of urine contamination and diluted with phosphate-buffered saline (PBS) (pH 7.2-7.4.) The mixture is then mixed thoroughly to obtain a homogeneous suspension by homogenization or sonication. To assay for IL-1α production due to fecal enzyme activity, an aliquot of the homogenate is diluted with PBS and added to the surface of a control culture in a culture vessel. To assay for inhibition of IL-1α production due to protease activity, a predetermined quantity of a putative protease inhibitor is added to an otherwise identical diluted aliquot of the homogenate prior to adding it to the surface of a test culture. The cultures are allowed to incubate in a controlled atmosphere. At selected times, the control cultures and inhibitor-treated test cultures, and the underlying culture media are harvested. The culture media are assayed for the presence of IL-1α by known methods. For example, a suitable assay for IL-1α is an enzyme-linked immunoabsorbent method commercially available as Quantikine from R&D Systems, Minneapolis, Minn. The percent reduction in IL-1α production due to the presence of the protease inhibitor is calculated as follows: [formula] […]

| Molecule | IC50 (purified chymotrypsin) [nM] | also measured |
| --- | --- | --- |
| CC(C)C[C@H](NC(=O)[C@@H](NC(=O)N[C@@H](Cc1ccccc1)C(=O)O)[C@@H]1CCN=C(N)N1)C(=O)N[C@H](C=O)Cc1ccccc1 [Chymostatin] | < 120 |  |
| N=C(N)c1ccc(OCCCCCCOc2ccc(C(=N)N)cc2)cc1 [Hexamidine diisethionate, hexamidine diisethionate] |  | reduction of IL-1α production from skin cultures treated with feces ([1]; inhibitor concentration 100 μM): 5%; reduction of IL-1α production from skin cultures treated with feces ([1]; inhibitor concentration 1000 μM): 51-88% |
| CC(C)CC(=O)N[C@H](C(=O)N[C@H](C(=O)N[C@@H](CC(C)C)[C@@H](O)CC(=O)N[C@@H](C)C(=O)N[C@@H](CC(C)C)[C@@H](O)CC(=O)O)C(C)C)C(C)C [Pepstatin A] (Isovaleryl-VV[Sta]A[Sta]-OH) | 4900 |  |
| Aprotinin | 1000 |  |
| Soybean trypsin inhibitor: plant-derived trypsin inhibitor; serine protease inhibitor (protein, UniProt P01070 25-205, looked up) Trypsin inhibitor A: DFVLDNEGNPLENGGTYYILSDITAFGGIRAAPTGNERCPLTVVQSRNELDKGIGTIISSPYRIRFIAEGHPLSLKFDSFAVIMLCVGIPTEWSVVEDLPEGPAVKIGENKDAMDGWFRLERVSDDEFNNYKLVFCPQQAEDDKCGDIGISIDHDDGTRRLVVSKNKPLVVQFQKLDKESL |  | reduction of IL-1α production from skin cultures treated with feces ([1]; inhibitor concentration 10 μM): 56-75% |
